Key:
[1] = test system: Culex quinquefasciatus mosquito; experiment: USDA Petri Dish Method, 3 min exposure to treated glazed tile (twenty 4-6 day old females); assay type: in vivo; conditions: for % KD and Mortality 3′ / % KD and Mortality 9′ / % KD and Mortality 15′ / % KD and Mortality 30′ / % KD and Mortality 1 h / % KD and Mortality 24 h: Table 73, in acetone, glazed tiles, 3′ exposure time; for % KD and Mortality 3′: 20 insects (three replicates); for % KD and Mortality 9′ / % KD and Mortality 15′ / % KD and Mortality 30′ / % KD and Mortality 1 h / % KD and Mortality 24 h: 20 insects; for Average % Knockdown & Mortality after 3 min / Average % Knockdown & Mortality after 15 min / Average % Knockdown & Mortality after 30 min / Average % Knockdown & Mortality after 60 min / Average % Knockdown & Mortality after 2 hr / Average % Knockdown & Mortality after 24 hr: in vivo; for Average % Mortality after 1 hr / Average % Mortality after 3 hr / Average % Mortality after 5 hr / Average % Mortality after 24 hr: Table 77, carbaryl study, Culex quinquefasciatus; for Average % Mortality after 1 hr: glazed tile, 3 min exposure, adjuvant = Compound A 1% + Compound B 0.5%
Procedure: (§1) MATERIALS AND METHODS: Solutions of resmethrin at 1 and 0.5% AI were prepared with and without adjuvant in acetone. […] USDA Petri Dish Method was used as initial screening protocol. Twenty, 4-6 day old female Culex quinquefasciatus mosquitoes were exposed to each treatment for 3 minutes and then moved to a clean untreated white paper index card. Treatments were replicated a minimum of three times. Mosquito knockdown was evaluated at 3 minute intervals for the first 15 minutes and then at 5 minute intervals for the remainder of an hour. A small cotton ball soaked in sucrose solution was added on the screen top of the petri-dish as a drinking source after the 2 hour evaluation. Mortality was evaluated at 24 hours after exposure.
(§2) Treatments were allowed to dry overnight. USDA Petri Dish Method was used as initial screening protocol. Twenty, 4-6 day old female Culex mosquitoes were exposed to each treatment for 3 minutes and then moved to a clean untreated white paper index card. Treatments were replicated a minimum of three times. Mosquito knockdown was evaluated at various intervals through 3 hours after exposure. A small cotton ball soaked in sucrose solution was added on the screen top of the petri-dish as a drinking source. Mortality was evaluated at 24 hours after exposure.
as §2, with “female Culex quinquefasciatus mosquitoes were” for “female Culex mosquitoes were”, “intervals through 2 hours after” for “intervals through 3 hours after”, “solution was then added on” for “solution was added on”
as §2, with “Culex quinquefasciatus” for “Culex”, “hourly intervals.” for “intervals through 3 hours after exposure.”, “source after 2 hours.” for “source.”

Aedes aegypti mosquito = experiment: USDA Petri Dish Method, 3 min exposure to treated glazed tile; assay type: in vivo; conditions: glazed tile, 3 min exposure
Procedure: as §2, with “female Aedes aegypti” for “female Culex”, “through 7” for “through 3”
as §1, with “Aedes aegypti” for “Culex quinquefasciatus”, “source.” for “source after the 2 hour evaluation.”
as §2, with “female Aedes aegypti” for “female Culex”, “through 6” for “through 3”
as §2, with “Aedes aegypti” for “Culex”, “5 minute” for “various”, “for the first hour and then at 2, 4 and 6 hours.” for “through 3 hours after exposure.”
Treatments were allowed to dry overnight. USDA Petri Dish Method was used as initial screening protocol. Twenty, 4-6 day old female Aedes aegypti mosquitoes were exposed to each treatment for 3 minutes and then moved to a clean untreated white paper index card. Treatments were replicated a minimum of three times. Mosquito knockdown was evaluated at 3-5 minute intervals for the first hour. A small cotton ball soaked in sucrose solution was then added on the screen top of the petri-dish as a drinking source. Mortality was evaluated at 24 hours after exposure.
as §2, with “old female Aedes aegypti mosquitoes were” for “old female Culex mosquitoes were”, “intervals through 2 hours after” for “intervals through 3 hours after”, “solution was then added on” for “solution was added on”
Treatments were allowed to dry overnight. USDA Petri Dish Method was used as initial screening protocol. Twenty, 4-6 day old female Aedes aegypti mosquitoes were exposed to each treatment for 3 minutes and then moved to a clean untreated white paper index card. Treatments were replicated a minimum of three times. Mosquito knockdown was evaluated at various hourly intervals. […]

[2] = test system: susceptible/normal German cockroach (Monheim strain), Blattella germanica; experiment: Knockdown/mortality of male cockroaches under continuous exposure on treated glazed tile; assay type: in vivo; conditions: Table 53, fipronil/adjuvant in acetone, glazed tile, Monheim strain
Procedure: Treatments were allowed to dry overnight. […] Treatments were replicated a minimum of three times. […]
Treatments were allowed to dry overnight. […] Treatments were replicated a minimum of three times. Cockroach knockdown/mortality was evaluated at 5 minute intervals for the first 60 minutes after exposure and then at 2, 18 and 24 hours.

[3] = test system: Argentine ant, Linepithema humile; experiment: Knockdown/mortality of ant workers under continuous exposure on treated glazed tile; conditions: Table 49, fipronil/adjuvant in acetone, glazed tile
Procedure, shortened: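 0.5% AI imidacloprid in acetone, alone or with 0.1, 1.0 or 5.0% additive (benzenepropanoic acid, oleic acid, methyl oleate, methyl linoleate, methyl palmitate or BHA), 1 ml dried overnight on glazed tile (~161 cm^2). Ten workers confined under continuous exposure, water from 3 h; knockdown/mortality scored at intervals and 24 h; ≥3 replicates.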

[4] = test system: Red Imported Fire ant (RIFA), Solenopsis invicta; experiment: as above; assay type: in vivo; conditions: Table 52, fipronil/adjuvant in acetone, glazed tile
Text: (§3) Treatments were allowed to dry overnight. […] Treatments were replicated minimum three times.
(§4) Treatments were allowed to dry overnight. […] Treatments were replicated a minimum of three times.

[5] = test system: Odorous House ant, Tapinoma sessile; experiment: as above; assay type: in vivo; conditions: Table 51, fipronil/adjuvant in acetone, glazed tile
Text: Actual coverage was about 5″×5″ (or 161 cm2) for easy handling. Treatments were allowed to dry overnight. […] Treatments were replicated minimum three times.
as §3, §4
Treatments were allowed to dry overnight. […] Treatments were replicated minimum of three times. […] The results are shown in FIG. 84 (No adjuvant alone treatment was performed).

[6] = Table 37, resmethrin/adjuvant in acetone
[7] = Table 48, fipronil/adjuvant in acetone

CNC(=O)Oc1cccc2c1OC(C)(C)O2 [0.1% = 50 mg Bendiocarb/m^2]
% KD and Mortality 3′ [1]: 0%
% KD and Mortality 9′ [1]: 0%
% KD and Mortality 15′ [1]: 0%
% KD and Mortality 30′ [1]: 15%
% KD and Mortality 1 h [1]: 37%
% KD and Mortality 24 h [1]: 81%

CC(C)=CC1C(C(=O)OCc2coc(Cc3ccccc3)c2)C1(C)C (centres unmarked) [Resmethrin (1%)]
Average % Knockdown & Mortality after 3 min (Aedes aegypti mosquito; [6]): 66%
Average % Knockdown & Mortality after 15 min (Aedes aegypti mosquito; [6]): 100%
Average % Knockdown & Mortality after 30 min (Aedes aegypti mosquito; [6]): 100%
Average % Knockdown & Mortality after 60 min (Aedes aegypti mosquito; [6]): 100%
Average % Knockdown & Mortality after 24 hr (Aedes aegypti mosquito; [6]): 100%
Average % Knockdown & Mortality after 3 min [1]: 0%
Average % Knockdown & Mortality after 15 min [1]: 2%
Average % Knockdown & Mortality after 30 min [1]: 13%
Average % Knockdown & Mortality after 60 min [1]: 11%
Average % Knockdown & Mortality after 2 hr [1]: 2%
Average % Knockdown & Mortality after 24 hr [1]: 4%

CNC(=O)Oc1cccc2ccccc12 [carbaryl (5%)]
Average % Mortality after 1 hr [1]: 0%
Average % Mortality after 3 hr [1]: 0%
Average % Mortality after 5 hr [1]: 0%
Average % Mortality after 24 hr [1]: 0%

CNC(=O)Oc1cccc2ccccc12 [carbaryl (2.5%)]
Average % Mortality after 1 hr [1]: 0%
Average % Mortality after 3 hr [1]: 0%
Average % Mortality after 5 hr [1]: 2%
Average % Mortality after 24 hr [1]: 5%

CC(C)=CC1C(C(=O)OCc2coc(Cc3ccccc3)c2)C1(C)C (centres unmarked) [Resmethrin (0.5%)]
Average % Knockdown & Mortality after 3 min (Aedes aegypti mosquito; [6]): 0%
Average % Knockdown & Mortality after 15 min (Aedes aegypti mosquito; [6]): 0%
Average % Knockdown & Mortality after 30 min (Aedes aegypti mosquito; [6]): 0%
Average % Knockdown & Mortality after 60 min (Aedes aegypti mosquito; [6]): 0%
Average % Knockdown & Mortality after 24 hr (Aedes aegypti mosquito; [6]): 8%
Average % Knockdown & Mortality after 3 min [1]: 0%
Average % Knockdown & Mortality after 15 min [1]: 0%
Average % Knockdown & Mortality after 30 min [1]: 0%
Average % Knockdown & Mortality after 60 min [1]: 0%
Average % Knockdown & Mortality after 2 hr [1]: 0%
Average % Knockdown & Mortality after 24 hr [1]: 0%

N#Cc1nn(-c2c(Cl)cc(C(F)(F)F)cc2Cl)c(N)c1[S+]([O-])C(F)(F)F (centres unmarked) [Fipronil (.0001%)]
Average % Knockdown & Mortality after 60 min ([2]; 60 min): 0%
Average % Knockdown & Mortality after 3 hr ([2]; 3 hr): 7%
Average % Knockdown & Mortality after 5 hr ([2]; 5 hr): 7%
Average % Knockdown & Mortality after 24 hr ([2]; 24 hr): 7%
Average % Mortality after 30 min ([3]; 30 min): 0%
Average % Mortality after 60 min ([3]; 60 min): 0%
Average % Mortality after 2 hr ([3]; 2 hr): 0%
Average % Mortality after 3 hr ([3]; 3 hr): 0%
Average % Mortality after 24 hr ([3]; 24 hr): 74%
Average % Mortality after 30 min ([4]; 30 min): 3%
Average % Mortality after 60 min ([4]; 60 min): 3%
Average % Mortality after 2 hr ([4]; 2 hr): 3%
Average % Mortality after 3 hr ([4]; 3 hr): 6%
Average % Mortality after 24 hr ([4]; 24 hr): 47%
Average % Knockdown & Mortality after 15 min (Aedes aegypti mosquito; [7]): 0%
Average % Knockdown & Mortality after 30 min (Aedes aegypti mosquito; [7]): 0%
Average % Knockdown & Mortality after 60 min (Aedes aegypti mosquito; [7]): 0%
Average % Knockdown & Mortality after 4 hr (Aedes aegypti mosquito; 4 hr, Table 48, fipronil/adjuvant in acetone): 3%
Average % Knockdown & Mortality after 6 hr (Aedes aegypti mosquito; 6 hr, Table 48, fipronil/adjuvant in acetone): 3%
Average % Knockdown & Mortality after 24 hr (Aedes aegypti mosquito; [7]): 9%
Average % Mortality after 30 min ([5]; 30 min): 0%
Average % Mortality after 60 min ([5]; 60 min): 3%
Average % Mortality after 2 hr ([5]; 2 hr): 3%
Average % Mortality after 24 hr ([5]; 24 hr): 54%

CNC(=O)Oc1cccc2c1OC(C)(C)O2 [0.01% = 5 mg Bendiocarb/m^2]
% KD and Mortality 3′ [1]: 0%
% KD and Mortality 9′ [1]: 0%
% KD and Mortality 15′ [1]: 0%
% KD and Mortality 30′ [1]: 0%
% KD and Mortality 1 h [1]: 0%
% KD and Mortality 24 h [1]: 0%

CNC(=O)Oc1cccc2ccccc12 [carbaryl (0.1%)]
Average % Mortality after 1 hr [1]: 0%
Average % Mortality after 3 hr [1]: 0%
